Each structure is given as a SMILES string. Where “and” joins values, the source holds several entries; their conditions need not be identical. Equal values may be shown once. Read-outs that look alike come from different tables or passages of the source.

Data set [1] has as its system cotton ball granulation in rat. On the set-up: species or system Wister rats. As to conditions: in vivo.
Another data set relates to Kunming mice. As to conditions: both, mouse, in vivo, iv.
The next data set is described as follows: in vivo. Conditions: both, Kunming, mouse.
Another data set can be described thus: physchem. As to conditions: water.
For another data set, the system named is IL-2. In kind it is cell-based, rat.
The test system of a further data set is IL-6. It is filed as cell-based, rat.
Another data set has as its system iNOS. It is filed as cell-based, rat.
Data set [2] has as its system rat adjuvant-induced arthritis. The arrangement: species or system SD rats. As to conditions: in vivo.
Data set [3] concerns rat adjuvant-induced arthritis. Conditions: in vivo.
The test system of data set [4] is transplanted heart (C57BL mouse heart grafted into balb/c mouse). Conditions: in vivo.
A short description of data set [5]: Cell membrane permeability (unpublished experimental data). It is filed as in vitro ADME. Conditions: our unpublished experimental data.
The conditions of data set [6]: background statement; cited from earlier work.
For data set [7] the following is noted: in vivo; cited from earlier work.

Consider `C[C@]12CCC(=O)C=C1CC[C@@H]1[C@@H]2[C@@H](O)C[C@@]2(C)[C@H]1CC[C@]2(O)C(=O)CO` [Hydrocordisone, reference compound], for which, in data set [1], the Inhibition of swelling is 42.2% and the “effect against cotton ball granulation” value is “significantly decreased weight of cotton ball granulation”.

In general, solubility refers to how much of the substance goes into solution per volume. A high value points to a readily soluble substance. For `CC(C)[C@]12OP(=O)([O-])O[C@H]1[C@]13O[C@H]1C[C@H]1C4=C(CC[C@]1(C)[C@@]31OC1[C@H]2SC#N)C(=O)OC4.[Na+]` (stereo partly drawn) [WDY1, sodium 12-β-thiocyano triptolide-13-α-14-β-phosphate], in data set [1], the Inhibition of swelling was 45.7% and 59.3% and 46.3%. The “effect against cotton ball granulation” value in [1] is “significant effect”. The “Death No. of mice” value in the data set with Kunming mice (98 mg/kg) was 0; in the data set with Kunming mice (109 mg/kg), 1; with Kunming mice (122 mg/kg) it was 4; with Kunming mice (135 mg/kg), 8; with Kunming mice (150 mg/kg), 9. The Mortality in the data set with Kunming mice (98 mg/kg) came to 0%; in the data set on Kunming mice (109 mg/kg) it was 10%; in the data set with Kunming mice (122 mg/kg) it was 40%; in the data set with Kunming mice (135 mg/kg) it was 80%; with Kunming mice (150 mg/kg) it was 90%. Also, the LD50 in “in vivo” (acute toxicity LD50) was 126 mg/kg; in the data set “in vivo” (iv, 95% limit of LD50), 119 to 133 mg/kg; in “in vivo” (iv, LD50) it was 126 mg/kg. In the data set “physchem”, this compound had a solubility of over 100 mg/mL.

In the data set “physchem”, `CC(C)[C@]12OP(=O)([O-])O[C@H]1[C@]13O[C@H]1C[C@H]1C4=C(CC[C@]1(C)[C@@]31OC1[C@H]2Cl)C(=O)OC4.[Na+]` (stereo partly drawn) [WDY2, sodium 12-β-chlorotriptolide-13-α-14-13-phosphate] showed a solubility of over 100 mg/mL.

`CC(C)[C@]12O[C@H]1C1O[C@]13[C@]1(O[C@H]1C[C@H]1C4=C(CC[C@@]13C)C(=O)OC4)[C@@H]2O[PH](=O)[O-].[Na+]` (stereo partly drawn) [WDY4, sodium triptolide-14-β-phosphite]: the “inhibition of LPS- or PHA-induced IL-2 mRNA expression” value in the data set with IL-2 is “completely inhibited”. Also, in the data set on IL-6, the “inhibition of mRNA expression of IL-6” value is “completely”. Besides, the “inhibition of mRNA expression of iNOS” value in the data set with iNOS is recorded as “completely”. The compound further gave a solubility in “physchem” of over 100 mg/mL.

Turning to `CC(C)[C@@]1(O)[C@H](SC#N)C2O[C@]23[C@]2(O[C@H]2C[C@H]2C4=C(CC[C@@]23C)C(=O)OC4)[C@@H]1OC(=O)CCC(=O)O` (stereo partly drawn) [WDY6, 12-β-thiocyano-13-α-hydroxy triptolide-14-β-succinic acid mono-ester], in data set [1], the Inhibition of swelling is 42.6% and 47.1% and 49.0%; the “effect against cotton ball granulation” value is “significant effect”. The “effect on thickness of the contralateral paw (left hind paw)” value in data set [2] is recorded as “significantly decreased”. The “effect in the treatment of adjuvant-induced rat arthritis” value in data set [3] is “significant effect”. In addition, in [4], the Average survival time was found to be 12.7 days; the “body weight and appetite of treated mice” value was “did not show a decrease of body weight and their appetites were normal”.

As to `CC(C)[C@]12O[C@H]1C1O[C@]13[C@]1(O[C@H]1C[C@H]1C4=C(CC[C@@]13C)C(=O)OC4)[C@@H]2OP(=O)([O-])[O-].[Na+].[Na+]` (stereo partly drawn) [WDY7, disodium triptolide-14-β-phosphate], in [1], the Inhibition of swelling is 41.5% and 55.6% and 56.8%; the “effect against cotton ball granulation” value is listed as “significant effect”. Besides, the “effect in the treatment of adjuvant-induced rat arthritis” value in [3] is “significant effect”. Also, in data set [4], the Average survival time worked out at 13.8 days; the “anti-rejection effect” value was “significant anti-rejection effect”; the “body weight and appetite of treated mice” value is “did not show a decrease of body weight and their appetites were normal”. In “in vivo” (acute toxicity LD50), the LD50 amounted to 0.8 mg/kg. In “physchem”, this compound displayed a solubility of over 100 mg/mL.

For the compound `CC(C)[C@]12O[C@H]1[C@@H]1O[C@]13[C@]1(O[C@H]1C[C@H]1C4=C(CC[C@@]13C)C(=O)OC4)[C@@H]2O` [triptolide], the “cell membrane permeability” value in data set [5] is “Low cell membrane permeability”. In data set [6], the “water solubility” value is listed as “Low water solubility”. In addition, the LD50 in [7] is 0.85 mg/kg body weight.
